In ChEMBL document CHEMBL3739333, “Nature of the charged head group dictates the anticancer potential of lithocholic acid-tamoxifen conjugates for breast cancer therapy” (Medchemcomm, 2015):
Blank lines part the entries; values can stand above or below the compound they belong to. Activity calls are given as the source filed them. No cut-off for these calls is given here.

Experiments:
MDA-MB-231 [1] = test: Cytotoxicity against human ER negative MDA-MB-231 cells after 48 hrs by MTT assay; format: functional, cell-based; conditions: MDA-MB-231, 48 h
MCF7 [2] = test: Cytotoxicity against human MCF7 cells expressing ER after 48 hrs by MTT assay; format: functional, cell-based; conditions: MCF7, 48 h
MDA-MB-468 [3] = test: Cytotoxicity against human ER negative MDA-MB-468 cells after 48 hrs by MTT assay; format: functional, cell-based; conditions: MDA-MB-468, 48 h
T47D [4] = test: Cytotoxicity against human T47D cells expressing ER after 48 hrs by MTT assay; format: functional, cell-based
[5] = Retention time of the compound by HPLC analysis; format: physicochemical
[6] = Binding affinity to model membranes using Laurdan-based hydration assessed as changes in generalized polarization after 6 hrs
Lipid bilayer [7] = test: Binding affinity to DPPC membranes assessed as changes in membrane fluidity of liposomes by measuring fluorescence anisotropy; conditions: Liposome; TDE = time-dependent effect
Lipid bilayer [8] = test: Binding affinity to DPPC membranes assessed as lowering of phase transition temperature
MDA-MB-231 [9] = test: Cell cycle arrest in human ER negative MDA-MB-231 cells assessed as accumulation of sub-G0 phase after 48 hrs by FACS analysis; format: functional, cell-based
MCF7 [10] = test: Cell cycle arrest in human MCF7 cells expressing ER assessed as accumulation of sub-G0 phase after 48 hrs by FACS analysis; format: functional, cell-based
MCF7 [11] = test: Induction of apoptosis in human MCF7 cells expressing ER assessed as change in mitochondrial membrane potential at 10 to 20 uM after 48 hrs using DiOC6 dye based FACS analysis; format: functional, cell-based
MDA-MB-231 [12] = test: Drug uptake in human ER negative MDA-MB-231 cells; format: ADME, cell-based
MCF7 [13] = test: Drug uptake in human MCF7 cells expressing ER; format: ADME, cell-based
MDA-MB-231 [14] = test: Cell cycle arrest in human ER negative MDA-MB-231 cells assessed as accumulation of sub-G0 phase at 20 uM after 48 hrs by FACS analysis relative to control; format: functional
MCF7 [15] = test: Cell cycle arrest in human MCF7 cells expressing ER assessed as accumulation of sub-G0 phase at 20 uM after 48 hrs by FACS analysis relative to control; format: functional
MDA-MB-231 [16] = test: Induction of apoptosis in human ER negative MDA-MB-231 cells assessed as change in mitochondrial membrane potential at 10 to 20 uM after 48 hrs using DiOC6 dye based FACS analysis; format: functional, cell-based
MDA-MB-231 [17] = test: Induction of apoptosis in human ER negative MDA-MB-231 cells assessed as increase of ROS level at 20 uM after 60 mins using DCFDA relative to control; format: functional
MDA-MB-231 [18] = test: Ratio of tamoxifen IC50 to compound IC50 for human ER negative MDA-MB-231 cells after 48 hrs by MTT assay; format: functional
MDA-MB-468 [19] = test: Ratio of tamoxifen IC50 to compound IC50 for human ER negative MDA-MB-468 cells after 48 hrs by MTT assay; format: functional
MCF7 [20] = test: Decrease in active-caspase-8 level in human MCF7 cells expressing ER at 10 uM after 48 hrs by Western blot analysis; format: functional, cell-based
MCF7 [21] = test: Induction of apoptosis in human MCF7 cells expressing ER assessed as increase of ROS level at 20 uM after 60 mins using DCFDA relative to control; format: functional, cell-based
MDA-MB-231 [22] = test: Induction of apoptosis in human ER negative MDA-MB-231 cells assessed as increase of Bax protein expression at 10 uM after 48 hrs by Western blot analysis; format: functional, cell-based
MDA-MB-231 [23] = test: Induction of apoptosis in human ER negative MDA-MB-231 cells assessed as decrease of Bcl-2 protein expression at 10 uM after 48 hrs by Western blot analysis; format: functional, cell-based
MDA-MB-231 [24] = test: Induction of apoptosis in human ER negative MDA-MB-231 cells assessed as effect of Bcl-xL protein expression at 10 uM after 48 hrs by Western blot analysis; format: functional, cell-based
MDA-MB-231 [25] = test: Induction of apoptosis in human ER negative MDA-MB-231 cells assessed as increase of cleaved caspase 6 level at 10 uM after 48 hrs by Western blot analysis; format: functional, cell-based
MDA-MB-231 [26] = test: Induction of apoptosis in human ER negative MDA-MB-231 cells assessed as increase of cleaved caspase 7 level at 10 uM after 48 hrs by Western blot analysis; format: functional, cell-based
MDA-MB-231 [27] = test: Induction of apoptosis in human ER negative MDA-MB-231 cells assessed as increase of cleaved caspase 8 level at 10 uM after 48 hrs by Western blot analysis; format: functional, cell-based
MDA-MB-231 [28] = test: Induction of apoptosis in human ER negative MDA-MB-231 cells assessed as effect on caspase 9 level at 10 uM after 48 hrs by Western blot analysis; format: functional, cell-based
MCF7 [29] = test: Induction of apoptosis in human MCF7 cells expressing ER assessed as decrease of Bcl-2 protein expression at 10 uM after 48 hrs by Western blot analysis; format: functional, cell-based
MCF7 [30] = test: Induction of apoptosis in human MCF7 cells expressing ER assessed as decrease of Bcl-xL protein expression at 10 uM after 48 hrs by Western blot analysis; format: functional, cell-based
MCF7 [31] = test: Induction of apoptosis in human MCF7 cells expressing ER assessed as effect of Bax protein expression at 10 uM after 48 hrs by Western blot analysis; format: functional, cell-based
MCF7 [32] = test: Induction of apoptosis in human MCF7 cells expressing ER assessed as effect on caspase 9 level at 10 uM after 48 hrs by Western blot analysis; format: functional, cell-based
MCF7 [33] = test: Decrease in caspase-6 level in human MCF7 cells expressing ER at 10 uM after 48 hrs by Western blot analysis; format: functional, cell-based
MCF7 [34] = test: Decrease in caspase-7 level in human MCF7 cells expressing ER at 10 uM after 48 hrs by Western blot analysis; format: functional, cell-based
T47D [35] = test: Ratio of tamoxifen IC50 to compound IC50 for human ER positive T47D cells after 48 hrs by MTT assay; format: functional
MCF7 [36] = test: Decrease in pro-caspase-8 level in human MCF7 cells expressing ER at 10 uM after 48 hrs by Western blot analysis; format: functional, cell-based

SMILES: CC/C(=C(\c1ccccc1)c1ccc(OCCN(C)C(=O)CC[C@@H](C)[C@H]2CC[C@H]3[C@@H]4CC[C@@H]5C[C@H](OC(=O)C[N+]6(C)CCCCC6)CC[C@]5(C)[C@H]4CC[C@]23C)cc1)c1ccccc1.[Cl-]
IC50 (MDA-MB-231 [1]): 9.2 µM
IC50 (MCF7 [2]): 24.5 µM
IC50 (MDA-MB-468 [3]): 7.6 µM
IC50 (T47D [4]): 9.8 µM
Retention_time [5]: 6.767 min

SMILES: CC/C(=C(\c1ccccc1)c1ccc(OCCN(C)C(=O)CC[C@@H](C)[C@H]2CC[C@H]3[C@@H]4CC[C@@H]5C[C@H](OC(=O)C[N+]6(C)CCOCC6)CC[C@]5(C)[C@H]4CC[C@]23C)cc1)c1ccccc1.[Cl-]
IC50 (MDA-MB-231 [1]): 48.2 µM
IC50 (MCF7 [2]): 43.6 µM
IC50 (MDA-MB-468 [3]): 15.3 µM
IC50 (T47D [4]): 45.2 µM
Retention_time [5]: 6.741 min

SMILES: CC/C(=C(\c1ccccc1)c1ccc(OCCN(C)C(=O)CC[C@@H](C)[C@H]2CC[C@H]3[C@@H]4CC[C@@H]5C[C@H](OC(=O)C[n+]6ccccc6)CC[C@]5(C)[C@H]4CC[C@]23C)cc1)c1ccccc1.[Cl-]
IC50 (MDA-MB-231 [1]): 18 µM
IC50 (MCF7 [2]): > 50 µM
IC50 (MDA-MB-468 [3]): 13.6 µM
IC50 (T47D [4]): 17.4 µM
Retention_time [5]: 7.033 min

SMILES: CC/C(=C(\c1ccccc1)c1ccc(OCCN(C)C(=O)CC[C@@H](C)[C@H]2CC[C@H]3[C@@H]4CC[C@@H]5C[C@H](OC(=O)C[n+]6ccc(N(C)C)cc6)CC[C@]5(C)[C@H]4CC[C@]23C)cc1)c1ccccc1.[Cl-]
IC50 (MDA-MB-231 [1]): 6.5 µM
IC50 (MCF7 [2]): 12.7 µM
IC50 (MDA-MB-468 [3]): 3.13 µM
IC50 (T47D [4]): 7 µM
Ratio IC50 (MDA-MB-231 [18]): 4
Ratio IC50 (MDA-MB-468 [19]): 4
inhibition (MCF7 [20]): Active
Retention_time [5]: 6.837 min
Activity [6]: Active
Activity (Lipid bilayer [7]): tde
Activity (Lipid bilayer [8]): Active
Activity (MDA-MB-231 [9]): Dose-dependent effect
Activity (MCF7 [10]): Dose-dependent effect
fold change (FC) (MDA-MB-231 [14]): 5
fold change (FC) (MCF7 [15]): 6
Activity (MDA-MB-231 [16]): Active
Activity (MCF7 [11]): inactive
fold change (FC) (MDA-MB-231 [17]): 2.3
Activity (MCF7 [21]): inactive
Activity (MDA-MB-231 [22]): Active
Activity (MDA-MB-231 [23]): Active
Activity (MDA-MB-231 [24]): inactive
Activity (MDA-MB-231 [25]): Active
Activity (MDA-MB-231 [26]): Active
Activity (MDA-MB-231 [27]): Active
Activity (MDA-MB-231 [28]): inactive
Activity (MCF7 [29]): Active
Activity (MCF7 [30]): Active
Activity (MCF7 [31]): inactive
Activity (MCF7 [32]): inactive
inhibition (MCF7 [33]): Active
inhibition (MCF7 [34]): Active
Ratio IC50 (T47D [35]): 4
inhibition (MCF7 [36]): Active

SMILES: CC/C(=C(\c1ccccc1)c1ccc(OCCN(C)C(=O)CC[C@@H](C)[C@H]2CC[C@H]3[C@@H]4CC[C@@H]5C[C@H](OC(=O)CN)CC[C@]5(C)[C@H]4CC[C@]23C)cc1)c1ccccc1
IC50 (MDA-MB-231 [1]): > 50 µM
IC50 (MCF7 [2]): > 50 µM
IC50 (MDA-MB-468 [3]): > 50 µM
IC50 (T47D [4]): > 50 µM
Activity [6]: Active
Activity (Lipid bilayer [7]): tde

More lines, main results first:

Activity [6]: inactive
Activity (Lipid bilayer [7]): tde
Activity (Lipid bilayer [8]): Active
SMILES: C[C@H](CCC(=O)O)[C@H]1CC[C@H]2[C@@H]3CC[C@@H]4C[C@H](OC(=O)C[n+]5ccc(N(C)C)cc5)CC[C@]4(C)[C@H]3CC[C@]12C
IC50 (MDA-MB-231 [1]): 13.7 µM
IC50 (MCF7 [2]): 43.4 µM
IC50 (MDA-MB-468 [3]): 9.1 µM
IC50 (T47D [4]): 13.3 µM
Activity (MDA-MB-231 [9]): Dose-dependent effect
Activity (MCF7 [10]): Dose-dependent effect
Activity (MCF7 [11]): inactive

Drug uptake (MDA-MB-231 [12]): Active
Drug uptake (MCF7 [13]): Active
SMILES: C[C@H](CCC(=O)NCc1cn(CCNc2ccc([N+](=O)[O-])c3nonc23)nn1)[C@H]1CC[C@H]2[C@@H]3CC[C@@H]4C[C@H](OC(=O)C[n+]5ccc(N(C)C)cc5)CC[C@]4(C)[C@H]3CC[C@]12C.[Cl-]

Retention_time [5]: 6.735 min
SMILES: CC/C(=C(\c1ccccc1)c1ccc(OCCN(C)C(=O)CC[C@@H](C)[C@H]2CC[C@H]3[C@@H]4CC[C@@H]5C[C@H](OC(=O)C[N+]67CCN(CC6)CC7)CC[C@]5(C)[C@H]4CC[C@]23C)cc1)c1ccccc1.[Cl-]
IC50 (MDA-MB-231 [1]): 20 µM
IC50 (MCF7 [2]): > 50 µM
IC50 (MDA-MB-468 [3]): 20.9 µM
IC50 (T47D [4]): 17.9 µM

Activity [6]: inactive
Activity (Lipid bilayer [7]): tde
Activity (Lipid bilayer [8]): inactive
SMILES: CC/C(=C(\c1ccccc1)c1ccc(OCCN(C)C)cc1)c1ccccc1 [TAMOXIFEN]
IC50 (MDA-MB-231 [1]): 27 µM
IC50 (MDA-MB-468 [3]): 15 µM
IC50 (T47D [4]): 29.9 µM
Activity (MDA-MB-231 [9]): Dose-dependent effect
Activity (MCF7 [10]): Dose-dependent effect
fold change (FC) (MDA-MB-231 [14]): 3
fold change (FC) (MCF7 [15]): 2
Activity (MDA-MB-231 [16]): inactive
Activity (MCF7 [11]): inactive
fold change (FC) (MDA-MB-231 [17]): 1.8

Drug uptake (MDA-MB-231 [12]): Active
Drug uptake (MCF7 [13]): Active
SMILES: CC/C(=C(\c1ccccc1)c1ccc(OCCN(C)c2ccc([N+](=O)[O-])c3nonc23)cc1)c1ccccc1

Retention_time [5]: 6.676 min
SMILES: CC/C(=C(\c1ccccc1)c1ccc(OCCN(C)C(=O)CC[C@@H](C)[C@H]2CC[C@H]3[C@@H]4CC[C@@H]5C[C@H](OC(=O)C[N+](C)(C)C)CC[C@]5(C)[C@H]4CC[C@]23C)cc1)c1ccccc1.[Cl-]
IC50 (MDA-MB-231 [1]): 18.1 µM
IC50 (MCF7 [2]): 28.9 µM
IC50 (MDA-MB-468 [3]): 15 µM
IC50 (T47D [4]): 8.1 µM

Retention_time [5]: 6.79 min
SMILES: CC/C(=C(\c1ccccc1)c1ccc(OCCN(C)C(=O)CC[C@@H](C)[C@H]2CC[C@H]3[C@@H]4CC[C@@H]5C[C@H](OC(=O)C[N+]6(C)CCCC6)CC[C@]5(C)[C@H]4CC[C@]23C)cc1)c1ccccc1.[Cl-]
IC50 (MDA-MB-231 [1]): 12.6 µM
IC50 (MCF7 [2]): 24 µM
IC50 (MDA-MB-468 [3]): 6.61 µM
IC50 (T47D [4]): 8.4 µM
